Patent US20040009594A1, “Method for amplifying natural killer t cells” (priority 2000, published 2004)
Values joined by “and” are separate entries in the source; they are usually repeats but may differ in a detail not shown here. Equal entries are not always repeated. “Also recorded” adds a separate entry of the source.

Columns and labels:
Assay type in all cases: cell-based, human
[1] = test system: Vα24^+ NKT cells from PBMCs; assay: Expansion of Vα24+ NKT cells from normal PBMCs by α-GalCer (flow cytometry)
Description: (§1) Buffy coat (crude PBMCs), prepared from 400 ml of whole blood drawn from a healthy person, was supplied by the Japanese Red Cross Blood Center. A cell fraction containing PBSCs (crude G-PBSCs) was obtained from patients undergone chemotherapy followed by a dose of 100 to 250 μg/body/day G-CSF subcutaneously for 6 to 10 days (Table 1) by performing apheresis between 2 and 24 hours after the last injection of G-CSF with COBE Spectra™ Cell Separator (LAKE WOOD, Colo. USA 80215) (Hematopoietic Stem Cells: Biology and Therapeutic Applications. Levit DJ, Mertelsmann R(eds), Marcel Dekker, Inc., New York, 1995, 611-630).
(§2) From the obtained crude PBMCs and crude G-PBSCs, mononuclear cell fractions (referred to as “PBMCs” and “G-PBSCs”, respectively) were prepared using Lympho-sepal density-gradient medium (Immuno-Biological Laboratories Gunma, Japan).
(§3) PBMCs and G-PBSCs obtained in (1) were cultured with RPMI-1640 supplemented with 2 mM L-glutamine, 1% pyruvate, 2% bicarbonate, 100 U/ml penicillin, 100 U/ml streptomycin (GIBCO BRL) in the presence of 100 U/ml IL-2 and 100 ng/ml of α-GlyCer. Cells were incubated in a water-vapor-saturated atmosphere containing 5% CO2 gas at 37° C. The cell number and characteristics of these cultured cells were examined on day 0 (d0) and day 12 (d12). As α-GlyCer, (2S,3S,4R)-1-O-(α-D-galactopyranosyl)-N-hexacosanoyl-2-amino-1,3,4-octadecanetriol; referred to as “α-GalCer”) prepared by Kirin Beer Kabushiki Kaisha was used.
(§4) Flow cytometry of the cultured cells was performed using a FACScan cytometer (Becton Dickinson, Sunyvale, Calif.) as follows. Fluorescein isothiocynate (FITC)-conjugated anti-Vα24 (C15), phycoerythrin (PE)-conjugated anti-Vβ11(C21), PE-conjugated anti-CD3, PE-conjugated anti-CD56, PE-conjugated anti-DC83 and PE-conjugated anti-CD8 were obtained from Immunotech (Marseilelles Cedex, France). FITC-conjugated PE-conjugated anti-CD161, PE-conjugated anti-IL-2Rβ, PE-conjugated anti-HLA-DR and PE-conjugated anti-CD4 were obtained from Becton Dickinson. PE-conjugated anti-CD86 was obtained from Pharmingen (San Diego, Calif.). PE-conjugated anti-CD57 was obtained from SIGMA (Saint Louis, Mo.) and used as iso-type controls. Cultured cells were harvested and resuspended in 10% fetal calf serum (FCS)-RPMI1620 medium at a density of 1×10^5/ml. After centrifugation for 3 min at 2000 rpm using MRX-150 high speed refrigerated micro centrifuges (TOMY SEIKO CO., LTD. Tokyo, Japan), the cells were resuspended in 50 μl of PBS containing 1 μl of antibodies described above and incubated for 30 min at 4° C. The cells were then washed twice with PBS, resuspended in PBS and stored at 4° C. until analysis. Data are shown as FSC, SSC, FL-1 indicating Vα24 or CD4, and FL-2 indicating Vβ11, CD8, CD3.

[2] = test system: Vα24^+ NKT cells from G-PBSCs; assay: Expansion of Vα24+ NKT cells from G-PBSCs by α-GalCer (flow cytometry)
Description: as §1, §2, §3, §4

[3] = test system: Vα24^+ NKT cells from G-PBSCs; assay: as above; details: IL-2 and α-GalCer (FIG. 5)
[4] = normal PBMCs, 100 ng/ml α-GalCer + 100 U/ml IL-2, day 12, one line per donor (No. 1-5)
[5] = G-PBSCs of cancer patients, 100 ng/ml α-GalCer + 100 U/ml IL-2, day 12, one line per patient (No. 6-10)

CCCCCCCCCCCCCCCCCCCCCCCCCC(=O)N[C@@H](CO[C@H]1O[C@H](CO)[C@H](O)[C@H](O)[C@H]1O)[C@H](O)[C@H](O)CCCCCCCCCCCCCC [α-GalCer, (2S,3S,4R)-1-O-(α-D-galactopyranosyl)-N-hexacosanoyl-2-amino-1,3,4-octadecanetriol]
course of number of Vα24+ NKT cells after day 12 ([1]; PBMCs, IL-2 and α-GalCer (FIG. 5)): gradually decrease after day 12
D12 NKT % α-GalCer (+) [1, 4]: 0.18% and 6.58% and 0.19% and 0.3% and 0.66%
D12 NKT (cell number) α-GalCer (+) [1, 4]: 2376 and 24346 and 9500 and 18300 and 20328
α-GalCer (+)/(−) ([1]; normal PBMCs, day 12, with vs without α-GalCer, one line per donor (No. 1-5)): 2.2 and 15.5 and 1.0 and 4.1 and 4.5
d12/d0 ([1]; normal PBMCs, with α-GalCer, day 12 vs day 0, one line per donor (No. 1-5)): 1.6 and 4.1 (2×) and 1.4 and 6.1
D12 NKT % α-GalCer (+) [2, 5]: 2.05% and 8.49% and 4.73% and 3.21% and 22.6%
D12 NKT (cell number) α-GalCer (+) [2, 5]: (51660); also recorded: (314130); also recorded: (520300); also recorded: (64200); also recorded: (1414375)
α-GalCer (+)/(−) ([2]; G-PBSCs, day 12, with vs without α-GalCer, one line per patient (No. 6-10)): 205.0 and 196.9 and 101.6 and 114.6 and 673.5
d12/d0 ([2]; G-PBSCs, with α-GalCer, day 12 vs day 0, one line per patient (No. 6-10)): 34.4 and 314.1 and 104.1 and 32.1 and 1414.4
amplification in G-PBSCs relative to PBMCs ([2]; day 12, IL-2 and α-GalCer): at least 10 fold
course of number of Vα24+ NKT cells after day 12 [3]: continue to expand up to day 30 of culture
